The source of these data is PMC9289467, “A Novel Multifunctional 5,6-Dimethoxy-Indanone-Chalcone-Carbamate Hybrids Alleviates Cognitive Decline in Alzheimer’s Disease by Dual Inhibition of Acetylcholinesterase and Inflammation” (Frontiers in Aging Neuroscience, 2022).

One experiment has as its system CD11c within microglia. The experiment is described as follows: CD11c and Iba1 co-immunostaining (DAM marker). The experiment is classed as in vivo. The settings on record: AP5-treated vs APP/PS1 mice. As to the method: (§1) APP/PS1 mice of ages 6 months were randomly divided into vehicle (APP/PS1, n = 10) and treatment groups (AP5, n = 10), which were intragastrically administered with AP5 (40 mg/kg) once daily for consecutive 5 months. AP5 was dissolved in distilled water containing 1% sodium carboxymethyl cellulose.
The fixed hemibrains were paraffin-embedded and sectioned in the coronal plane. The slices were deparaffinized with xylene and rehydrated by a series of gradient alcohols. Antigen retrieval through microwave boiling was performed with 10 mM sodium citrate solution at pH 6.0. The slices were cooled down to room temperature and then rinsed in PBS solution. Then the slices were incubated in 10% goat serum blocking solution for 1 h followed by primary antibodies overnight at 4°C. The next day, the slides were labeled with biotinylated or fluorescent secondary antibodies. Slices were washed three times with PBS before being mounted. Images were captured using a SpinSR10 scanner (Olympus, Tokyo, Japan). […]
Cambridge, UK) or anti-GFAP (1:100, bs-0199R, Bioss) at4 °C. After being washed with PBS, slides were treated with a biotinylated secondary antibody for 30 min and with streptavidin-peroxidase complex for another 30 min at 37°C. Immunostaining was visualized with 3,3′-diaminobenzidine (DAB, ZL1-9018, Zhongshan Jinqiao, Beijing, China ).The images were acquired using a Nikon microscope (Nikon, […]

The target of a further experiment is T1, AChE (Mus musculus, UniProt P21836).
T1 construct: The brain samples were weighed, homogenized in PBS solution, and centrifuged; from tissue; host or cells: mouse brain (cortex and hippocampus) of APP/PS1 mice dosed with AP5
T1 sequence (P21836 32-614): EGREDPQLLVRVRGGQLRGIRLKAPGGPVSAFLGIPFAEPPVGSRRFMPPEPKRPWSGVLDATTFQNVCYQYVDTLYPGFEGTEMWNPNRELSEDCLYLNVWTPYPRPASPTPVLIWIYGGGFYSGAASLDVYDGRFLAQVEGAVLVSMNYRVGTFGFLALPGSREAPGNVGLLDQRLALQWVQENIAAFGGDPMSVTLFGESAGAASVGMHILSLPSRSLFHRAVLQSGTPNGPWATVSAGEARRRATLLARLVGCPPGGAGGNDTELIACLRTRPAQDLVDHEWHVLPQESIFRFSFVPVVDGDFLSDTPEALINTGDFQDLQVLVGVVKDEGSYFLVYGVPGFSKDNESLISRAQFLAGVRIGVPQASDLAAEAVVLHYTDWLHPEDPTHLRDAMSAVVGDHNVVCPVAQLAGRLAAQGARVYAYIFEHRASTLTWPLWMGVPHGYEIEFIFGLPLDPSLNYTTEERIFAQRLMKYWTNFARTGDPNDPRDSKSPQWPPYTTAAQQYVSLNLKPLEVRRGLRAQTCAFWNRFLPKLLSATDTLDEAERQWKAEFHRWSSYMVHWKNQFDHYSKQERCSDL
The experiment in a line: Brain AChE activity, Amplex Red kit, APP/PS1 mice. As to conditions: AP5 40 mg/kg intragastric once daily 5 months, vs APP/PS1 mice. Format: in vivo. On the procedure:
as §1
The brain samples were weighed, homogenized in PBS solution, and centrifuged for 20 min at 25,000 g at 4°C. Amplex® Red acetylcholinesterase/acetylcholine assay kit (A12217, Thermo Fisher Scientific) was used to detect AChE activity and ACh levels in the supernatant in accordance with the manufacturer’s instructions.
Briefly, for ACh assay, the reactions were started by adding 100 µL of the Amplex Red reagent, HRP, choline oxidase, AChE working solution to each microplate well containing the controls and samples. For AChE assay, detection cocktail solution containing ACh, Amplex Red, choline oxidase and horseradish peroxidase was added toeach well. Assay plates were incubated at room temperature for 30 min and protected from light, followed by detecting fluorescence of resorufin (λex = 544 nm, λem = 590 nm) in a fluorescence microplate reader.
After deparaffinization and antigen retrieval, the sections were incubated with 0.3% hydrogen peroxide (H2O2) to inhibit endogenous peroxidase activity for 20 min and blocked by goat serum for 30 min at37°C. […]

Experiment [1] concerns spatial learning and memory. The experiment in a line: Morris water maze. The experiment is classed as in vivo, APP/PS1 mice. The settings on record: after 5 months of treatment. On the procedure:
as §1
To investigate whether AP5 treatment plays a key role in cognition improvement of APP/PS1 mice models, the five different behavioral tests were sequentially carried out in the following order: open field, novel object recognition task, spatial object-location task, Y-maze, and Morris water maze (MWM). AP5 was also administered daily during the test periods. A set of video analysis systems (TopScan, CleverSys, United States) was used throughout the behavioral tests. […]
the familiar object) / total exploration time for the novel and familiar object.
For the spatial object location task (an object moved to a new location), mice first explored the two objects placed in two corners of the open field for 5 min in training period. After 1 h or 24 h, the mice received a 5 min retention trial with a new spatial configuration with an object moved from one corner to the opposite corner of the open field.The discrimination index was calculated and defined as: (time spent exploring the displaced object-time spent exploring nondisplaced objects) / total exploration time for the two objects during the 5 min retention trial.
Work on spatial recognition memory was tested by Y-maze. The symmetrical Y-maze consisted of three arms joined in the middle to form a Y shape. […] The ratio between the distance spent in the novel arm and the totaldistance travelled in the maze was quantified as preference index. […]
guided to platform and allowed to stay on it for 30 s. The time (escape latency) for each mouse to find the way and reach the target platform was analyzed. […] The parameters measured during the probe trialincluded number of platform crossing and time spent in the target quadrant. […]

Another experiment concerns ThS-positive plaque. The experiment is described as follows: Thioflavin S staining of amyloid plaques, APP/PS1 mice. Format: in vivo. As to conditions: cortex and hippocampus; AP5 40 mg/kg once daily 5 months. As to the method:
as §1
The hemisphere slices were stained with 0.5% fluorescent amyloid dye Thioflavin S (ThS, T1892, Sigma Aldrich) in the dark for 10 min followed by three washes with 50% ethyl alcohol and a final wash in PBS. Image analysis of the number and size of cortical and hippocampal ThS positive plaques was carried out on Image J FIJI software with “analyze particles” function.

For `CCN(C)C(=O)Oc1cccc(/C=C2\Cc3cc(OC)c(OC)cc3C2=O)c1` [AP5, (E)-3-((5,6-dimethoxy-1-oxo-1,3-dihydro-2H-inden-2-ylidene)-methyl)phenylethyl(methyl)carbamate], in the experiment on CD11c within microglia, the “CD11c-positive area within the activated microglia” value is “significantly elevated”. Moreover, at AChE, the “AChE activity in cortex and hippocampus” value was “decreased activity of AChE”. Further, in experiment [1] (MWM probe trial), the platform crossing number entry is “performed much better” and the “time spent in the target quadrant” value is given as “performed much better”. Moreover, the escape latency result in experiment [1] (MWM) was “performed much better”. For the same compound, in the experiment with ThS-positive plaque, the “load of ThS-positive plaque” value is “pronounced reduction” and the “number of ThS-positive plaque” value was “pronounced reduction”.
